Literature values, collected in patent US8481518B2, “Quaternary antimuscarinic compounds for the treatment of bladder diseases” (University of Rochester, priority 2003, dated 2013).
Where a name gives a salt, the structure may show the parent alone.

Tests used:
[1] = system: muscarinic receptors
[2] = intravesical instillation two to three times daily
[3] = oral, 5 mg/kg four times/day
[4] = generally 25 mg twice daily, adults with urge incontinence
[5] = system: all subtypes of human muscarinic receptors; details: in vitro

COC(=O)C1=CC[C@@H]2CC[C@H]1N2C [AEME, Anhydroecgonine methyl ester]
cholinergic agonist activity ([1]; guinea pig tracheal rings and detrusor muscle in vitro): lacked cholinergic agonist activity | muscarinic antagonism ([1]; in vitro): potent non-competitive muscarinic antagonist

CCN(CC)CC#CCOC(=O)C(O)(c1ccccc1)C1CCCCC1 (stereo not drawn) [oxybutynin, (4-diethylamino)2-butynyl-cc-cyclohexyl-a-hydroxybenzeneacetate HCl]
patients dropping out due to inability to tolerate catheterization or difficulty retaining drug solution [2]: 21% | severe mouth dryness, subjects affected [3]: 84%

CC(CC(c1ccccc1)c1ccccc1)NC(C)(C)C (stereo not drawn) [terodiline]
effect on micturition frequency and incontinence episodes [4]: reduced micturition frequency and incontinence episodes

C[N+]1(C)[C@@H]2C[C@@H](OC(=O)C(O)(c3cccs3)c3cccs3)C[C@H]1[C@@H]1O[C@@H]12 [tiotropium bromide, 6β,7β,Epoxy-3α-[2-hydroxy-2,2-di(2-thienyl)acetoxy]-8,8-dimethyl-1αH,5αH-tropanium bromide]
antagonism at all subtypes of human muscarinic receptors [5]: 10-11 M
